These are literature values, as cited in patent publication US20130281718A1, “HIGH-FLUIDITY NON-CAKING DIANHYDROHEXITOL PELLETS” (ROQUETTE FRERES, priority 2010, published 2013).

For the data set the following is noted: addition of 0.005% by weight of butyl cellulose acetate; pressure of 0.23 bar after forming.

As to `CC(C)(CO)CO` [neopentyl glycol], the Time without caking is reported as 30 days.
